Assay results published in patent publication US5137889A, “Dihydropyridine derivatives and process for preparing the same” (Otsuka Pharmaceutical Co., Ltd., priority 1983, dated 1992).

Columns and labels:
[1] = biological target: T1, Calmodulin-cyclic-AMP phosphodiesterase (Bos taurus, UniProt P62157); test: Calmodulin-cyclic-AMP phosphodiesterase inhibitory activity (presence of calmodulin); type: biochemical, bovine; conditions: with calmodulin and CaCl2, pH 7.0, 30° C., 30 minutes
T1 construct: tissue Amano & Co. (calmodulin only); host or cells: phosphodiesterase: bovine heart, partially purified; calmodulin: bovine brain
Description: (1) Calmodulin: A calmodulin product manufactured by Amano & Co., which was isolated from the brain of bovine, and purified so as to be considered as a single substance with respect to SDS-page (polyacrylamide gel electrophoresis) method.
(§1) (2) Calmodulin-dependent cyclic-AMP phosphodiesterase (EC 3.1.4.17): An enzyme substance isolated from the heart of bovine and purified partially by a method of modified version of the disclosure in H. C. Ho, T. S. Teo, et al.: "Biochim. Biophys. Acta", 429, 461 (1976).
(§2) (3) 5'-Nucleotidase (EC 3.1.3.5): Grade IV substance (isolated from Crotalus adamanteus venom) manufactured by Sigma & Co.
(§3) (4) Others: Remainder of the reagents used in the test were those of reagent grade chemicals manufactured by Wako Pure-Chemical Industries, Ltd.
(§4) Calmodulin inhibitory activity of each of the test compounds was measured by a method of modified version of the disclosure in T. S. Teo and T. H. Wang: "J. Bio. Chem.", 248, 588 (1973).
(2) Calmodulin: One unit thereof stimulates 0.015 activated unit of cyclic-AMP phosphodiesterase to 50% of the maximum activity of the enzyme.
(§5) (3) 5'-Nucleotidase: One unit thereof hydrolyzes 1.0 micromole of inorganic phosphorus from adnosine 5'-monophosphate per minute at pH 9.0 at 37° C.
(1) Calmodulin-cyclic-AMP phosphodiesterase inhibitory activity:
40 mM of Imidazol, 20 mM of MgCl2, 20 mM of CaC12, 0.008 unit of cyclic-AMP phosphodiesterase, 1.0 unit of calmodulin, 0.2 unit of 5'-nucleotidase and 1.0 ml of 10 mM-tris(hydroxymethyl)aminomethane/HCl buffer solution (pH 7.0) containing 0.5 mM of cyclic-AMP were mixed together, and reacted at 30° C. for 30 minutes. Each of the test compounds was dissolved in methanol or N,N-dimethylformamide as the solvent, provided that the quantity of the solvent was not exceed 2% of the total amount of the mixture. After the reaction was completed, the reaction mixture was ice-cooled, and 0.5 ml each of aqueous solutions of 16.5%-trichloroacetic acid, 1%-thiourea, 3%-ammonium ferrous sulfate were respectively added to the reaction mixture. Further, 0.15 ml of 4.4%-ammonium molibdate solution was added to the mixture and the whole of the mixture was stirred, and was centrifuged at 3,000 r.p.m. for 10 minutes. Then, the centrifuged mixture was allowed to stand at a room temperature for 20 minutes. The OD660 nm (optical density at 660 nm) was measured.

[2] = biological target: T2, Cyclic-AMP phosphodiesterase (Bos taurus, UniProt P14100); test: Cyclic AMP phosphodiesterase inhibitory activity (absence of calmodulin, EGTA in place of CaCl2); type: biochemical, bovine; conditions: 1 mM EGTA in place of CaCl2; 3 hours
T2 construct: from tissue; host or cells: bovine heart, partially purified
T2 sequence (P14100 1-514 isoform P14100-2): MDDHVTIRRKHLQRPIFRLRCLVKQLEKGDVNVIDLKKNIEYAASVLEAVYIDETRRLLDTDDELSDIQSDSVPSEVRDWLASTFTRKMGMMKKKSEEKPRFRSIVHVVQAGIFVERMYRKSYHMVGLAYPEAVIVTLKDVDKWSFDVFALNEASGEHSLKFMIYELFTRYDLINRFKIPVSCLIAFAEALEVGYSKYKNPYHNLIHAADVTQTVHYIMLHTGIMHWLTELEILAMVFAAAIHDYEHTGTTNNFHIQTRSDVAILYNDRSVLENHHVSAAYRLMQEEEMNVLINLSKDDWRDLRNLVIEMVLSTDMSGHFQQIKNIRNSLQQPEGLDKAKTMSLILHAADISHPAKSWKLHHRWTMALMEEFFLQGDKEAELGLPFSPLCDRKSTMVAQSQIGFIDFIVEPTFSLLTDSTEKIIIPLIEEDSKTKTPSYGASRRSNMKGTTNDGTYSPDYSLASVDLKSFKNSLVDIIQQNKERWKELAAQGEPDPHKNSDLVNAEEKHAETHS
Description: as §1, §2, §3, §4, §5
(2) Cyclic AMP phosphodiesterase inhibitory activity:
The reaction was conducted by a method similar to that described in (1) as mentioned above, except that 1 mM of EGTA [ethylene glycol-bis(β-amino ethyl ether)-N,N-tetraacetic acid] was used in place of 20 mM of CaCl2. The reaction was conducted for 3 hours.

[3] = system: SHR-rats (spontaneously hypertensive rats); conditions: 30 mg/kg p.o.
Description: Systolic blood pressures and heart beat of SHR-rats (spontaneously hypertensive rats) were determined by a "tail cuff method". Thus the test animal was placed in a thermostat chamber (Type: FR-12RS, manufactured by Isuze & Co.) and was warmed at 40° C. for 15 minutes so as to vasodilate the tail arteria, the systolic blood pressures were measured by an electro sphygmomanometer (Type: PE-300, manufactured by Narco-Biosystems, Inc.) and recorded by an ink-writing recorder (Type: RECTI-HORIZ 8s, manufactured by San-Ei Instrument & Co.). The experiments were conducted under non-anesthetized and semi-confinement conditions. The test compound was orally administered forcedly by using a sonde for oral administration. The test compound was suspended in 0.15%-gum arabic powder aqueous solution so as to make the quantity of the test compound to 2.5 ml/kg. The test animal was not fasted, and the systolic blood pressures (mm-Hg) were measured before the administration (hereinafter referred to as "PRE") and after the administration (8, 24, 30, 48, 54 and 72 hours after the administration) of the test compound. The data of systolic blood pressure measured before the administration are shown in absolute value of mmHg, and the data measured after the administration are shown in the differences from the absolute values.

`COC(=O)C1=C(C)NC(C)=C(C(=O)OC/C=C/c2cccc(O)c2)C1c1cccc([N+](=O)[O-])c1` (stereo not drawn) [Test Compound 25, Methyl 3-(3-hydroxyphenyl)-2(E)propenyl 1,4-dihydro-2,6-dimethyl-4-(3-nitrophenyl)-pyridine-3,5-dicarboxylate] gave an IC50 ([1]; read-out: Calmodulin-cyclic-AMP phosphodiesterase IC50 (converted)) of 1940 nM and an IC50 [2] of 53 µM.
With “Methyl 3-(4-hydroxyphenyl)-2(E)-propenyl 1,4-dihydro-2,6-dimethyl-4-(3-nitrophenyl)pyridine-3,5-dicarboxylate [Test Compound 1]” the “Calmodulin-cyclic-AMP phosphodiesterase IC50” value [1] was 4.1 µg/mL, the “Cyclic-AMP phosphodiesterase IC50” value [2] was 60 µg/mL and the “Blood pressure after the administration, 24 hours (difference from the absolute value before administration)” value [3] was -38.6 mm-Hg. For the same compound, the “Blood pressure after the administration, 30 hours (difference from the absolute value before administration)” value [3] was -21.2 mm-Hg, the “Blood pressure after the administration, 48 hours (difference from the absolute value before administration)” value [3] was -21.0 mm-Hg and the “Blood pressure after the administration, 54 hours (difference from the absolute value before administration)” value [3] was -19.2 mm-Hg.
In the case of “Methyl 3-(4-hydroxyphenyl)-2-propynyl 1,4-dihydro-2,6-dimethyl-4-(3-nitrophenyl)-pyridine-3,5-dicarboxylate [Test Compound 12]”, the “Calmodulin-cyclic-AMP phosphodiesterase IC50” value [1] is reported as 0.78 µg/mL, the “Cyclic-AMP phosphodiesterase IC50” value [2] is reported as 13 µg/mL and the “Blood pressure after the administration, 24 hours (difference from the absolute value before administration)” value [3] is reported as -18.0 mm-Hg. For the same compound, the “Blood pressure after the administration, 30 hours (difference from the absolute value before administration)” value [3] was -25.8 mm-Hg, the “Blood pressure after the administration, 48 hours (difference from the absolute value before administration)” value [3] was -19.8 mm-Hg and the “Blood pressure after the administration, 54 hours (difference from the absolute value before administration)” value [3] was -14.6 mm-Hg.
With “Methyl 4-(4-methylthiophenyl)-3(E)-butenyl 1,4-dihydro-2,6-dimethyl-4-(3-nitrophenyl)-pyridine-3,5-dicarboxylate [Test Compound 15]” the “Calmodulin-cyclic-AMP phosphodiesterase IC50” value [1] was 0.062 µg/mL, the “Cyclic-AMP phosphodiesterase IC50” value [2] was 0.23 µg/mL and the “Blood pressure after the administration, 24 hours (difference from the absolute value before administration)” value [3] was -75.4 mm-Hg. The “Blood pressure after the administration, 30 hours (difference from the absolute value before administration)” value [3] was -66.8 mm-Hg, the “Blood pressure after the administration, 48 hours (difference from the absolute value before administration)” value [3] was -20.8 mm-Hg and the “Blood pressure after the administration, 54 hours (difference from the absolute value before administration)” value [3] was -10.6 mm-Hg. For the same compound, the “Blood pressure after the administration, 72 hours (difference from the absolute value before administration)” value ([3]; 72 hours) was -9.6 mm-Hg.
